Assays:
[1] = tested on: SNB-75; assay: Growth inhibition of human SNB75 cells assessed as cell growth at 0.01 uM incubated for 48 hrs by sulforhodamine B assay relative to control; assay type: functional; conditions: SNB-75, 48 h, read-out: Activity
[2] = tested on: 786-0; assay: Growth inhibition of human 786-0 cells assessed as cell growth at 100 uM incubated for 48 hrs by sulforhodamine B assay relative to control; assay type: functional; conditions: 786-0, 48 h, read-out: Activity
[3] = tested on: A498; assay: Growth inhibition of human A498 cells assessed as cell growth at 0.1 uM incubated for 48 hrs by sulforhodamine B assay relative to control; assay type: functional; conditions: A498, 48 h, read-out: Activity
[4] = tested on: COLO 205; assay: Growth inhibition of human COLO205 cells assessed as cell growth at 100 uM incubated for 48 hrs by sulforhodamine B assay relative to control; assay type: functional; conditions: COLO 205, 48 h, read-out: Activity
[5] = tested on: U-251; assay: Growth inhibition of human U251 cells incubated for 48 hrs by sulforhodamine B assay; assay type: functional, cell-based; conditions: U-251, 48 h
[6] = tested on: SF-295; assay: Growth inhibition of human SF295 cells assessed as cell growth at 0.1 uM incubated for 48 hrs by sulforhodamine B assay relative to control; assay type: functional; conditions: SF-295, 48 h, read-out: Activity
[7] = tested on: NCI/ADR-RES; assay: Growth inhibition of human NCI/ADR-RES cells assessed as cell growth at 100 uM incubated for 48 hrs by sulforhodamine B assay relative to control; assay type: functional; conditions: read-out: Activity
[8] = tested on: SK-OV-3; assay: Growth inhibition of human SKOV3 cells assessed as cell growth at 0.1 uM incubated for 48 hrs by sulforhodamine B assay relative to control; assay type: functional; conditions: SK-OV-3, 48 h, read-out: Activity
[9] = tested on: HT-29; assay: Growth inhibition of human HT-29 cells assessed as cell growth at 100 uM incubated for 48 hrs by sulforhodamine B assay relative to control; assay type: functional; conditions: HT-29, 48 h, read-out: Activity
[10] = tested on: LOX IMVI; assay: Growth inhibition of human LOXIMVI cells assessed as cell growth at 0.1 uM incubated for 48 hrs by sulforhodamine B assay relative to control; assay type: functional; conditions: read-out: Activity
[11] = tested on: HCC 2998; assay: Growth inhibition of human HCC2998 cells assessed as cell growth at 0.1 uM incubated for 48 hrs by sulforhodamine B assay relative to control; assay type: functional; conditions: HCC 2998, 48 h, read-out: Activity
[12] = tested on: RPMI-8226; assay: Growth inhibition of human RPMI8226 cells incubated for 48 hrs by sulforhodamine B assay; assay type: functional, cell-based; conditions: RPMI-8226, 48 h
[13] = tested on: UACC-257; assay: Growth inhibition of human UACC257 cells assessed as cell growth at 100 uM incubated for 48 hrs by sulforhodamine B assay relative to control; assay type: functional; conditions: UACC-257, 48 h, read-out: Activity
[14] = tested on: NCI-H522; assay: Growth inhibition of human NCI-H522 cells incubated for 48 hrs by sulforhodamine B assay; assay type: functional, cell-based; conditions: NCI-H522, 48 h
[15] = tested on: SN12C; assay: Growth inhibition of human SN12C cells incubated for 48 hrs by sulforhodamine B assay; assay type: functional, cell-based
[16] = tested on: 786-0; assay: Growth inhibition of human 786-0 cells assessed as cell growth at 0.01 uM incubated for 48 hrs by sulforhodamine B assay relative to control; assay type: functional; conditions: 786-0, 48 h, read-out: Activity
[17] = tested on: HCC 2998; assay: Growth inhibition of human HCC2998 cells incubated for 48 hrs by sulforhodamine B assay; assay type: functional, cell-based; conditions: HCC 2998, 48 h
[18] = tested on: 786-0; assay: Growth inhibition of human 786-0 cells assessed as cell growth at 1 uM incubated for 48 hrs by sulforhodamine B assay relative to control; assay type: functional; conditions: 786-0, 48 h, read-out: Activity
[19] = tested on: SF-268; assay: Growth inhibition of human SF268 cells incubated for 48 hrs by sulforhodamine B assay; assay type: functional, cell-based; conditions: SF-268, 48 h
[20] = tested on: ACHN; assay: Growth inhibition of human ACHN cells assessed as cell growth at 100 uM incubated for 48 hrs by sulforhodamine B assay relative to control; assay type: functional; conditions: read-out: Activity
[21] = tested on: SW-620; assay: Growth inhibition of human SW620 cells assessed as cell growth at 100 uM incubated for 48 hrs by sulforhodamine B assay relative to control; assay type: functional; conditions: SW-620, 48 h, read-out: Activity
[22] = tested on: HT-29; assay: Growth inhibition of human HT-29 cells assessed as cell growth at 10 uM incubated for 48 hrs by sulforhodamine B assay relative to control; assay type: functional; conditions: HT-29, 48 h, read-out: Activity
[23] = tested on: SK-MEL-5; assay: Growth inhibition of human SK-MEL-5 cells assessed as cell growth at 1 uM incubated for 48 hrs by sulforhodamine B assay relative to control; assay type: functional; conditions: SK-MEL-5, 48 h, read-out: Activity
[24] = tested on: NCI-H23; assay: Growth inhibition of human NCI-H23 cells assessed as cell growth at 0.1 uM incubated for 48 hrs by sulforhodamine B assay relative to control; assay type: functional; conditions: NCI-H23, 48 h, read-out: Activity
[25] = tested on: HCT-15; assay: Growth inhibition of human HCT15 cells incubated for 48 hrs by sulforhodamine B assay; assay type: functional, cell-based; conditions: HCT-15, 48 h
[26] = tested on: UACC-62; assay: Growth inhibition of human UACC62 cells incubated for 48 hrs by sulforhodamine B assay; assay type: functional, cell-based; conditions: UACC-62, 48 h
[27] = tested on: PC-3; assay: Growth inhibition of human PC3 cells assessed as cell growth at 100 uM incubated for 48 hrs by sulforhodamine B assay relative to control; assay type: functional; conditions: PC-3, 48 h, read-out: Activity
[28] = tested on: Malme-3M; assay: Growth inhibition of human MALME-3M cells assessed as cell growth at 1 uM incubated for 48 hrs by sulforhodamine B assay relative to control; assay type: functional; conditions: read-out: Activity
[29] = read-out: LC50 (the source's name)
[30] = read-out: pLC50 (the source's name) (converted)

## COc1cc(Cl)cc(-c2nn(-c3cccc(NC(=O)Nc4cccc(C(F)(F)F)c4)c3)cc2-c2ccncc2)c1
[1]
  growth at 0.01 µM: 83%
[2]
  growth at 100 µM: -57%
[3]
  growth at 0.1 µM: 92%
[4]
  growth at 100 µM: -95%
[5]
  IC50: 0.88 µM
[5]; read-out: GI50
  GI50: 0.679 µM
[5]; [29]
  CC50: 89.4 µM
[5]; read-out: TGI
  TGI: 29.1 µM
[5]; read-out: pGI50 (converted)
  GI50: 0.891 µM
[5]; [30]
  CC50: 8.91 µM
[5]; read-out: pTGI (converted)
  TGI: 2.88 µM
[6]
  growth at 0.1 µM: 57%
[7]
  growth at 100 µM: -22%
[8]
  growth at 0.1 µM: 98%
[9]
  growth at 100 µM: -97%
[10]
  growth at 0.1 µM: 97%
[11]
  growth at 0.1 µM: 98%
[12]
  IC50: 0.43 µM
[12]; read-out: GI50
  GI50: 0.43 µM
[12]; [29]
  CC50: > 100 µM
[12]; read-out: TGI
  TGI: 23 µM
[12]; read-out: pGI50 (converted)
  GI50: 0.427 µM
[12]; [30]
  CC50: > 100 µM
[12]; read-out: pTGI (converted)
  TGI: 2.29 µM
[13]
  growth at 100 µM: -72%
[14]; read-out: GI50
  GI50: 0.445 µM
[14]; [29]
  CC50: 10 µM
[14]; read-out: TGI
  TGI: 25.1 µM
[14]; [30]
  CC50: 10.2 µM
[15]; read-out: GI50
  GI50: 2.06 µM
[15]; read-out: LC50
  LC50: > 100 µM
[15]; read-out: TGI
  TGI: 15.5 µM
[15]; read-out: pGI50 (converted)
  GI50: 2.04 µM
[15]; read-out: pLC50 (converted)
  LC50: > 100 µM
[15]; read-out: pTGI (converted)
  TGI: 18.6 µM
[16]
  growth at 0.01 µM: 99%
[17]; read-out: GI50
  GI50: 3.47 µM
[17]; [29]
  CC50: 90.1 µM
[17]; read-out: TGI
  TGI: 14 µM
[17]; read-out: pGI50 (converted)
  GI50: 3.47 µM
[17]; [30]
  CC50: 89.1 µM
[17]; read-out: pTGI (converted)
  TGI: 14.1 µM
[18]
  growth at 1 µM: 77%
[19]; read-out: GI50
  GI50: 2.56 µM
[19]; [29]
  CC50: > 100 µM
[19]; read-out: TGI
  TGI: 17.1 µM
[19]; read-out: pGI50 (converted)
  GI50: 2.57 µM
[19]; [30]
  CC50: > 100 µM
[19]; read-out: pTGI (converted)
  TGI: 17 µM
[20]
  growth at 100 µM: -9%
[21]
  growth at 100 µM: -11%
[22]
  growth at 10 µM: 5.75%
[23]
  growth at 1 µM: 80%
[24]
  growth at 0.1 µM: 90%
[25]; read-out: GI50
  GI50: 1.34 µM
[25]; [29]
  CC50: 50 µM
[25]; read-out: TGI
  TGI: 10.6 µM
[25]; read-out: pGI50 (converted)
  GI50: 1.35 µM
[25]; [30]
  CC50: 50.1 µM
[25]; read-out: pTGI (converted)
  TGI: 10.7 µM
[26]
  IC50: 1.47 µM
[26]; read-out: GI50
  GI50: 1.47 µM
[26]; [29]
  CC50: 10.2 µM
[26]; read-out: TGI
  TGI: 33.4 µM
[26]; read-out: pGI50 (converted)
  GI50: 1.48 µM
[26]; [30]
  CC50: 10.2 µM
[26]; read-out: pTGI (converted)
  TGI: 3.8 µM
[27]
  growth at 100 µM: -35%
[28]
  growth at 1 µM: 75%

## COc1cc(Cl)cc(-c2nn(-c3cccc(NC(=O)Nc4ccc(Cl)c(Cl)c4)c3)cc2-c2ccncc2)c1
[1]
  growth at 0.01 µM: 88%
[2]
  growth at 100 µM: -46%
[3]
  growth at 0.1 µM: 58%
[4]
  growth at 100 µM: -100%
[5]
  IC50: 1.7 µM
[5]; read-out: GI50
  GI50: 1.7 µM
[5]; [29]
  CC50: 4.16 µM
[5]; read-out: TGI
  TGI: 60.3 µM
[5]; read-out: pGI50 (converted)
  GI50: 1.7 µM
[5]; [30]
  CC50: 41.7 µM
[5]; read-out: pTGI (converted)
  TGI: 6.03 µM
[6]
  growth at 0.1 µM: 57%
[7]
  growth at 100 µM: -3%
[8]
  growth at 0.1 µM: 90%
[9]
  growth at 100 µM: -44%
[10]
  growth at 0.1 µM: 94%
[11]
  growth at 0.1 µM: 96%
[12]
  IC50: 0.65 µM
[12]; read-out: GI50
  GI50: 0.652 µM
[12]; [29]
  CC50: > 100 µM
[12]; read-out: TGI
  TGI: 33.7 µM
[12]; [30]
  CC50: > 100 µM
[13]
  growth at 100 µM: -36%
[14]; read-out: GI50
  GI50: 1.29 µM
[14]; [29]
  CC50: > 100 µM
[14]; read-out: TGI
  TGI: 44.8 µM
[14]; read-out: pGI50 (converted)
  GI50: 1.29 µM
[14]; [30]
  CC50: > 100 µM
[14]; read-out: pTGI (converted)
  TGI: 4.47 µM
[15]; read-out: GI50
  GI50: 3.1 µM
[15]; read-out: LC50
  LC50: > 100 µM
[15]; read-out: TGI
  TGI: > 100 µM
[15]; read-out: pGI50 (converted)
  GI50: 3.09 µM
[15]; read-out: pLC50 (converted)
  LC50: > 100 µM
[15]; read-out: pTGI (converted)
  TGI: > 100 µM
[16]
  growth at 0.01 µM: 100%
[17]; read-out: GI50
  GI50: 3.16 µM
[17]; [29]
  CC50: > 100 µM
[17]; read-out: TGI
  TGI: 35.8 µM
[17]; read-out: pGI50 (converted)
  GI50: 3.16 µM
[17]; [30]
  CC50: > 100 µM
[17]; read-out: pTGI (converted)
  TGI: 37.2 µM
[18]
  growth at 1 µM: 84%
[19]; read-out: GI50
  GI50: 3.27 µM
[19]; [29]
  CC50: > 100 µM
[19]; read-out: TGI
  TGI: > 100 µM
[19]; read-out: pGI50 (converted)
  GI50: 3.24 µM
[19]; [30]
  CC50: > 100 µM
[19]; read-out: pTGI (converted)
  TGI: > 100 µM
[20]
  growth at 100 µM: 6%
[21]
  growth at 100 µM: 7%
[22]
  growth at 10 µM: 7.39%
[23]
  growth at 1 µM: 88%
[24]
  growth at 0.1 µM: 93%
[25]; read-out: GI50
  GI50: 2.51 µM
[25]; [29]
  CC50: > 100 µM
[25]; read-out: TGI
  TGI: 31.5 µM
[25]; read-out: pGI50 (converted)
  GI50: 2.51 µM
[25]; [30]
  CC50: > 100 µM
[25]; read-out: pTGI (converted)
  TGI: 31.6 µM
[26]
  IC50: 2.4 µM
[26]; read-out: GI50
  GI50: 2.4 µM
[26]; [29]
  CC50: > 100 µM
[26]; read-out: TGI
  TGI: 16.3 µM
[26]; read-out: pGI50 (converted)
  GI50: 2.4 µM
[26]; [30]
  CC50: > 100 µM
[26]; read-out: pTGI (converted)
  TGI: 16.2 µM
[27]
  growth at 100 µM: -24%
[28]
  growth at 1 µM: 77%
